Experimental data reported in patent US20120010075A1 (priority 2009, published 2012).
Like-named read-outs stand apart in the source and are kept apart here.

Experiments:
Phytophthora capsici = experiment: In vitro fungitoxicity of hydrazones with and without copper towards Phytophthora capsici (Example 28, Table 3); assay type: cell-based; conditions: 0.050 μg/mL, 48 h; for % Inhn Plus copper Observed: copper-plus AS medium (CuCl2, 50 μM); for inhibition of growth at 0.05 µg/mL: Phytophthora capsici, copper-minus AS medium, read-out: % Inhn Minus copper Observed
[1] = tested on: Leptosphaeria nodorum (LEPTNO); experiment: In vitro fungitoxicity of hydrazones with and without copper towards Leptosphaeria nodorum (Example 26); assay type: cell-based; conditions: 72 h at 25° C.; for inhibition of growth at 0.05 µg/mL: Parastagonospora nodorum, 72 h, copper-minus medium, read-out: LEPTNO % Inhn. Minus Copper Observed
Phytophthora infestans = assay type: in vivo, Phytophthora infestans on tomato; conditions: applied 24 h before inoculation, assessed 7 days after inoculation
Ustilago maydis = experiment: In vitro fungitoxicity of hydrazones with and without copper towards Ustilago maydis (Example 29, Table 4); assay type: cell-based; conditions: 1 μg/mL, 48 h; for % Inhn. Plus copper Observed: copper-plus medium (CuCl2, 10 μM); for inhibition of growth at 1 µg/mL: Mycosarcoma maydis, copper-minus medium, read-out: % Inhn. Minus copper Observed
[2] = tested on: Septoria tritici isolate USA-184; experiment: In vitro fungitoxicity of hydrazones with and without copper towards Septoria tritici (Example 30, Table 5); assay type: cell-based; conditions: Zymoseptoria tritici, 0.05 μg/mL
[3] = compound 0.05 μg/mL, copper-plus medium (CuCl2.2H2O)
[4] = hydrazone 50 ppm + 50 μM CuCl2.2H2O, tomato
[5] = Colby formula, CuCl2, read-out: % Inhibition Plus copper Predicted
[6] = copper-minus medium, 90 h, read-out: % Inhibition Minus copper Observed
[7] = copper-plus medium CuCl2, 90 h, read-out: % Inhibition Plus copper Observed

| Structure (SMILES) | % Inhn Plus copper Observed (Phytophthora capsici) [%] | inhibition of growth at 0.05 µg/mL (Phytophthora capsici) [%] | inhibition of growth at 0.05 µg/mL ([1]; compound 0.05 μg/mL) [%] | LEPTNO % Inhn. Plus Copper Observed [1, 3] [%] | TLB % Control (Phytophthora infestans; [4]) [%] | melting point [°C] | % Inhn. Plus copper Observed (Ustilago maydis) [%] | inhibition of growth at 1 µg/mL (Ustilago maydis) [%] | inhibition at 0.05 µg/mL [2, 5] [%] | inhibition at 0.05 µg/mL [2, 6] [%] | inhibition at 0.05 µg/mL [2, 7] [%] | inhibition of growth at 0.05 µg/mL ([1]; test compound Concn. 0.05 μg/mL) [%] | LEPTNO % Inhn. Plus Copper Observed ([1]; copper-plus medium (CuCl2 10 μM), test compound Concn. 0.05 μg/mL) [%] | TLB % Control (Phytophthora infestans; hydrazone 50 ppm with 50 μM CuCl2.2H2O, tomato late blight) [%] |
| --- | --- | --- | --- | --- | --- | --- | --- | --- | --- | --- | --- | --- | --- | --- |
| O=C(N/N=C/c1cc(Br)cc(Br)c1O)c1cc(Cl)ccc1Br [Example 220] | 85.5 | 13.4 | 0 | 95.3 | 89.1 | 215 to 218 |  |  |  |  |  |  |  |  |
| O=C(N/N=C/c1ccccc1O)c1cc(I)ccc1Br [Example 221] | 92.2 | 12 | 0 | 92.4 | 66.0 | 202 to 205 |  |  |  |  |  |  |  |  |
| O=C(N/N=C/c1cc(Cl)cc(Cl)c1O)c1cc(I)ccc1Br [Example 222] | 76.8 | 11.3 | 0 | 94.5 | 67.3 | 201 to 219 |  |  |  |  |  |  |  |  |
| O=C(N/N=C/c1cc(Br)cc(Br)c1O)c1cc(I)ccc1Br [Example 223] | 51.3 | 2.5 | 26.9 | 97.2 | 54.0 | 215 to 216 |  |  |  |  |  |  |  |  |
| O=C(N/N=C/c1ccccc1O)c1cc(I)ccc1Cl [Example 224] | 93.3 | 6.2 | 0 | 91.0 | 67.3 | 222 to 226 |  |  |  |  |  |  |  |  |
| O=C(N/N=C/c1cc(Cl)cc(Cl)c1O)c1cc(I)ccc1Cl [Example 225] | 82.8 | 11.4 | 0 | 96.6 | 78.2 | 198 to 201 |  |  |  |  |  |  |  |  |
| O=C(N/N=C/c1cc(Br)cc(Br)c1O)c1cc(I)ccc1Cl [Example 226] | 62.1 | 2.3 | 0 | 94.5 | 71.0 | 205 to 212 |  |  |  |  |  |  |  |  |
| Cc1ccc(C(=O)N/N=C/c2ccccc2O)c(Br)c1 [Example 227] | 93.4 | 1.7 | 5 | 95.0 | 52.7 | 86 to 122 |  |  |  |  |  |  |  |  |
| Cc1ccc(C(=O)N/N=C/c2cc(Cl)cc(Cl)c2O)c(Br)c1 [Example 228] | 86.9 | 10 | 2.6 | 97.0 | 68.4 | 240 to 242 |  |  |  |  |  |  |  |  |
| Cc1ccc(C(=O)N/N=C/c2cc(Br)cc(Br)c2O)c(Br)c1 [Example 229] | 89.1 | 1.6 | 6 | 98.0 | 70.9 | 258 to 261 |  |  |  |  |  |  |  |  |
| C/C(=N\NC(=O)c1ccccc1)c1ccccc1O [Example 230] | 93.6 | 5.8 | 9 | 98.3 | 65.0 | 185 to 187 | 94.4 | 11.9 | 43.6 | 43.6 | 96.7 |  |  |  |
| O=C(N/N=C/c1cc(C(F)(F)F)cc(Cl)c1O)c1ccccc1O [Example 329] |  |  |  |  |  | 258 to 260 | 41.8 | 16.2 | 14.9 | 14.9 | 55.1 | 14 | 93.5 | 99.0 |
